Measured values as given in patent publication US12344583B2, “Solid psilocin salts” (LOBE SCIENCES LTD., priority 2022, dated 2025).
Values joined by “and” are separate entries in the source; they are usually repeats but may differ in a detail not shown here. Identical values can stand only once. “Also recorded” adds a separate entry of the source.

Key:
[1] = Stability studies on psilocin mucate capsule (appearance, HPLC assay and impurities, TM-022-0392); type: physicochemical
Procedure: Additional stability studies were performed on the solid psilocin form psilocin mucate (also known as psilocin mucic acid salt or conjugate or psilocin galactaric acid salt or conjugate) capsule.
Appearance was evaluated by viewing of the sample on a watchglass over a black and white background.
Assay conditions for Test/Method TM-022-0392 assessing stability and impurities were as follows: • Mobile phase: MPA: 945 mL water, 5 mL H3PO4, pH to 5.7 with • NaOH; MPB: Acetonitrile • Diluent: 80:20 Water: MeOH • Standard: 0.4 mg/mL Psilocin Mucic RS in Diluent • Sample: 0.4 mg/mL Psilocin Mucic API in Diluent HPLC Conditions are depicted in Table 3.
Calculations were against a bracketing external standard.
Identity of psilocin mucate was verified by ultraviolet (UV) assessment, wherein the UV spectrum of the main peak in the standard matched the UV spectrum of the main peak in the sample and by retention time wherein the retention time ratio was 0.98-1.02.

[2] = test system: healthy subjects; experiment: Phase one open-label single-dose study of psilocin mucate capsules: MMSE and mood assessment by psychiatrist; details: single oral capsule 4.05 mg psilocin mucate (equivalent to 2 mg psilocin)

Structure (SMILES): CN(C)CCc1c[nH]c2cccc(O)c12.O=C(O)[C@@H](O)[C@H](O)[C@H](O)[C@@H](O)C(=O)O [psilocin mucate]
- Total Impurities ([1]; 7 Months): <0.05%
- Impurities TM-22-0392, individual impurities ([1]; 7 Months, all impurities, area percent): All <0.05%
- Assay TM-22-0392 (% Label Claim) ([1]; 7 Months, specification 90.0-110.0%): 101,7%
- Total Impurities ([1]; Initial): 0.08%
- Impurities TM-22-0392, individual impurities ([1]; Initial, impurity at RRT I.12, area percent): RRT I.12/0.08%
- FEELING STATUS ([2]; one statement per subject): Less anxious, better mood, increase their appetite; also recorded: Feel little beet happier, better energy; also recorded: Feel calm, less thoughts, happier mood; also recorded: Euphoric, better mood, it helps with life stress; also recorded: Euphories, better mood, sleepy, feel time is; also recorded: Sleepy, better thoughts, less worried in general; also recorded: Did not feel change in mood but feeling cold; also recorded: More relaxed, want to drink sweet tea, better; also recorded: Better mood, feels hyper sexual
- MMSE ([2]; one value per subject, below 25 expected for a hallucinogenic substance): 29 (2×) and 30 (3×) and 28 (3×) and 27 (2×)
